Laboratory results as given in EPA's CvTdb concentration-time database.

What was measured:
Assay in all cases: concentration in plasma after dosing
Rat [1] = details: dosed: Di-n-butyl phthalate, Male, Sprague-Dawley
Rat [2] = details: 6 h; dosed: Di-n-butyl phthalate; 50 mg/kg; oral; Male; Sprague-Dawley
Rat [3] = details: 5 h; dosed: Di-n-butyl phthalate; 20 mg/kg; iv; Male; Sprague-Dawley

CCCCOC(=O)c1ccccc1C(=O)O [Mono-n-butyl phthalate]
Rat [1]
Details	concentration in plasma [ng/mL]
0.25 h, 100 mg/kg, oral	26200
0.5 h, 50 mg/kg, oral	16600
0.5 h, 100 mg/kg, oral	40300
1 h, 20 mg/kg, iv	3060
1 h, 50 mg/kg, oral	5560
1 h, 100 mg/kg, oral	23500
1.5 h, 20 mg/kg, iv	517
2 h, 20 mg/kg, iv	945
2 h, 50 mg/kg, oral	2700
2 h, 100 mg/kg, oral	9480
2 h, 200 mg/kg, oral	114000
3 h, 20 mg/kg, iv	1380
3 h, 50 mg/kg, oral	2390
3 h, 100 mg/kg, oral	6880
4 h, 20 mg/kg, iv	667
4 h, 100 mg/kg, oral	10000
5 h, 20 mg/kg, iv	1120
5 min, 20 mg/kg, iv	29400
5 min, 50 mg/kg, oral	3240
5 min, 100 mg/kg, oral	6120
6 h, 20 mg/kg, iv	627
6 h, 50 mg/kg, oral	4090
6 h, 100 mg/kg, oral	7390
8 h, 20 mg/kg, iv	522
10 h, 50 mg/kg, oral	506
10 h, 100 mg/kg, oral	3970
10 min, 20 mg/kg, iv	31300
10 min, 50 mg/kg, oral	20500
15 h, 50 mg/kg, oral	629
15 h, 100 mg/kg, oral	538
20 h, 100 mg/kg, oral	492
20 h, 200 mg/kg, oral	1820
20 min, 20 mg/kg, iv	24200
20 min, 50 mg/kg, oral	13800
24 h, 100 mg/kg, oral	517
40 min, 20 mg/kg, iv	5840
40 min, 50 mg/kg, oral	12000

Details	concentration in plasma [ng/mL]
Rat [2]	2060
Rat [3]	600
